{
  "source": "patent US5919761A",
  "about": "“Peptides for heparin and low molecular weight heparin anticoagulation reversal” (The Board of Regents of the University of Michigan, priority 1995, dated 1999)",
  "key": {"[1]": {"test": "Hemodynamic studies and total toxicity score after standard heparin reversal, canine study", "conditions": "dogs; for ΔMAP: average maximum decline in first five minutes after peptide administration; for average total toxicity score (TTS±SD): first 5 minutes after reversal, more negative = more toxic; for ΔCO / ΔVO2: maximum percent change", "procedure": "As used hereinafter, the peptides will be identified by their total cationic charge value, e.g., [+8], [+16], etc.\nHemodynamic studies were conducted by measuring mean arterial pressure (MAP), heart rate (HR), and maximum percent changes in cardiac output (CO) and systemic oxygen consumption (VO2).\nTotal toxicity scores (TTS) were developed that reflected maximum declines in each of four parameters (MAP, CO, VO2 and HR) over the first 5 minutes after reversal, the latter being the time of expected greatest adverse hemodynamic effect. The maximum changes occurring in an individual dog over the first 5 minutes were divided by the standard deviation derived from the entire group of tested animals and the four scores were added, resulting in a TTS for each individual dog. The TTS values for each dog were then summed to obtain an average TTS and SD for each peptide studied."}, "[2]": {"test": "Platelet and white cell counts after standard heparin reversal, canine study", "assay_type": "in vivo", "conditions": "dogs, 3 minutes post-reversal, resolved by about 30 minutes", "experimental": "(§1) Anticoagulation reversal was assessed by a number of standard coagulation tests performed upon samples of venous blood: activated clotting time (ACT), prothrombin time (PT), activated partial thromboplastin time (aPTT), thrombin clotting time (TCT), heparin concentration by assay for FXa inhibitory activity (FXa), white cell count (WBC), and platelet counts (PLT). Measurements were made 3 minutes prior to heparin reversal (baseline) and 3 minutes and 30 minutes post-administration of the heparin reversal agent. The \"Heparin\" row sets forth the observed reversal as a consequence of expected heparin metabolism or degradation alone."}, "[3]": {"test": "Platelet count, leukocyte count and bleeding time after LMWH reversal at different rates, canine study", "assay_type": "in vivo, dogs", "conditions": "dogs, Logiparin; administered over 10 sec", "procedure": "The anticoagulation-reversing agents were administered rapidly over 10 seconds to maximize hemodynamic effects or more slowly over a 3 minute interval. Changes in LMWH anticoagulation occurring from metabolism alone were determined in a separate group of dogs not given any reversal agent."}, "[4]": {"tested_on": "standard, unfractionated heparin", "test": "Percent reversal of standard heparin anticoagulation by variant peptides and protamine, in vivo canine study, coagulation tests", "design": "species or system dogs", "conditions": "for Percent reversal of heparin anticoagulation, ACT: heparin 150 IU/kg IV, agent 1.5 mg/kg IV over 10 seconds", "experimental": "Data are expressed as a mean ±1 SD. Statistical analysis using linear regression for determination of correlation coefficients, and analysis of variance (ANOVA) or unpaired two-way Student's t-test; p<0.05 was accepted as statistically significant.\nas §1"}},
  "note": "Peptide text beside a SMILES is read from it.",
  "data": [
    {"molecule": "NCCCC[C@H](NC(=O)[C@H](CCCCN)NC(=O)[C@H](CCCCN)NC(=O)[C@H](CCCCN)NC(=O)CNC(=O)CNC(=O)[C@H](CCCCN)NC(=O)[C@H](CCCCN)NC(=O)[C@H](CCCCN)NC(=O)[C@H](CCCCN)NC(=O)CNC(=O)CNC(=O)[C@H](CCCCN)NC(=O)[C@H](CCCCN)NC(=O)[C@H](CCCCN)NC(=O)[C@H](CCCCN)NC(=O)CNC(=O)CNC(=O)[C@H](CCCCN)NC(=O)[C@H](CCCCN)NC(=O)[C@H](CCCCN)NC(=O)[C@H](CCCCN)NC(=O)CNC(=O)CNC(=O)[C@H](CCCCN)NC(=O)[C@H](CCCCN)NC(=O)[C@H](CCCCN)NC(=O)[C@H](CCCCN)NC(=O)[C@@H]1CCCN1)C(=O)O", "note": "[[+20], P(K4 G2)4 K4] (H-PKKKKGGKKKKGGKKKKGGKKKKGGKKKK-OH)", "values": [
      {"measurement": "ΔHR", "setting": "[1]", "result": -38},
      {"measurement": "ΔMAP", "setting": "[1]", "result": -31},
      {"measurement": "average total toxicity score (TTS±SD)", "setting": "[1]", "result": "-6.1±3.5"},
      {"measurement": "ΔCO", "setting": "[1]", "result": -40, "unit": "%"},
      {"measurement": "ΔVO2", "setting": "[1]", "result": -31, "unit": "%"},
      {"measurement": "platelet counts", "setting": "[2]", "result": "thrombocytopenia"}
    ]},
    {"molecule": "PK4 S3 KPVK6 PKVSK6 G2 K4 [[+21]]", "values": [
      {"measurement": "ΔHR", "setting": "[1]", "result": -21},
      {"measurement": "ΔMAP", "setting": "[1]", "result": -35},
      {"measurement": "average total toxicity score (TTS±SD)", "setting": "[1]", "result": "-6.9±3.8"},
      {"measurement": "ΔCO", "setting": "[1]", "result": -44, "unit": "%"},
      {"measurement": "ΔVO2", "setting": "[1]", "result": -38, "unit": "%"},
      {"measurement": "Maximal thrombocytopenia", "setting": "[3]", "result": -43, "unit": "%"},
      {"measurement": "platelet counts", "setting": "[2]", "result": "thrombocytopenia"},
      {"measurement": "in vivo heparin reversal (summary)", "setting": "[4]; dogs, standard heparin", "result": "nearly complete reversal"},
      {"measurement": "Percent reversal of heparin anticoagulation, ACT", "setting": "[4]; dogs, 3 min post-administration", "result": 81, "unit": "%"},
      {"measurement": "Percent reversal of heparin anticoagulation, ACT", "setting": "[4]; dogs, 30 min", "result": 85, "unit": "%"},
      {"measurement": "Percent reversal of heparin anticoagulation, APTT", "setting": "[4]; same study, 3 min", "result": 88, "unit": "%"},
      {"measurement": "Percent reversal of heparin anticoagulation, FNa", "setting": "[4]; same study, 3 min", "result": 59, "unit": "%"},
      {"measurement": "Percent reversal of heparin anticoagulation, FXa", "setting": "[4]; same study, 3 min", "result": 55, "unit": "%"},
      {"measurement": "Percent reversal of heparin anticoagulation, PT", "setting": "[4]; same study, 3 min", "result": 97, "unit": "%"},
      {"measurement": "Percent reversal of heparin anticoagulation, TCT", "setting": "[4]; same study, 3 min", "result": 91, "unit": "%"},
      {"measurement": "Percent reversal of heparin anticoagulation, APTT", "setting": "[4]; same study, 30 min", "result": 85, "unit": "%"},
      {"measurement": "Percent reversal of heparin anticoagulation, FXa", "setting": "[4]; same study, 30 min", "result": 49, "unit": "%"},
      {"measurement": "Percent reversal of heparin anticoagulation, PT", "setting": "[4]; same study, 30 min", "result": 93, "unit": "%"},
      {"measurement": "Percent reversal of heparin anticoagulation, TCT", "setting": "[4]; same study, 30 min", "result": 79, "unit": "%"}
    ]}
  ]
}
